Source: the OPERA property sets (Mansouri et al. 2018)

SMILES | logP
CNc1ccc(S(N)(=O)=O)cc1 | 0.08
CCCCCCCCCCCCCC[n+]1cc(C)cc(C)c1.[I-] | 2.9
CN(C)CCN(Cc1ccc(C(C)(C)C)cc1)c1ccccc1 | 5.34
O=NN(CCCl)C(=O)NC1CCC(=O)NC1=O (centres undefined) | 0.37
COc1cc(Cc2cnc(N)nc2N)cc(OC)c1C(=O)CS(C)(=O)=O | -0.31
CSc1nnc(C)c(=O)n1N | -0.16
CN1C(=Nc2ncc([N+](=O)[O-])s2)NCC1(C)C | 2.35
Cc1ccc(Cl)c(Cl)c1NC1=NCCN1 | 2.35
NC(=O)NN=CCCc1ccccc1 | 2.32
CCCOn1c(=O)[nH]c(CCC)c(Br)c1=O | 1.73
CCCCCCCCCC[n+]1ccccc1.[Br-] | -0.72
CCCCCNc1ccc(C(=O)OCCN(C)C)cc1 | 4.14
Clc1ccccc1NC1=NCCN1 | 1.36
CCN(CC)CCNC(=O)c1cc(F)ccc1OC | 2.62
COc1cc(Cc2cnc(N)nc2N)cc(OC)c1N | 0.83
CC1(C)SC2C(NC(=O)C(O)c3ccccc3)C(=O)N2C1C(=O)O (centres undefined) | 1.4
Nc1ccc(Cc2cnc(N)nc2N)cc1 | 0.22
COc1cc(Cc2cnc(N)nc2N)cc(O)c1O | -0.31
Cc1ccccc1C(=O)NN | 0.22
CC1CNC(=Nc2ncc([N+](=O)[O-])s2)N1C (centres undefined) | 2.02
C=C(Br)CC1(C(C)CC)C(=O)NC(=O)N(C)C1=O (centres undefined) | 2.43
O=[N+]([O-])c1ccc(OCCn2ccnc2)cc1 | 1.69
CSC(C)=NOC(=O)N(C)SN(C)C(=O)c1cccc(C(F)(F)F)c1 | 2.5
NS(=O)(=O)c1ccccc1Cl | 0.74
CC(=O)Nc1cc2c(cc1Cl)S(=O)(=O)NC(C)=N2 | 0.53

SMILES | logP
NNC(=O)c1cccc(N)c1 | -0.86
CCOC(=O)C(C#N)=NNc1ccc(Cl)c(C(F)(F)F)c1 | 4.86
CC(C)C(=O)N(C)SN(C)C(=O)Oc1cccc2c1OC(C)(C)C2 | 3.6
CCN(CC)CCNC(=O)c1cc(Cl)cc(Cl)c1 | 3.77
O=S(=O)(Nc1cccc(O)c1)C(F)(F)F | 2.51
CCCCCC[n+]1cc(C)cc(C)c1.[I-] | -1.19
CSc1nc2nc(SC)[nH]c(Cl)c-2n1 | 0.63
CCc1cc(OP(=O)(OC)OC)ccc1[N+](=O)[O-] | 2.19
COc1ccc(CC(C)N)c(OC)c1 (centres undefined) | 1.75
CC(C)(C)CC(N)C(=O)O (centres undefined) | -1.42
COC1OCC(O)C(NC(=O)N(C)N=O)C1O (centres undefined) | -1.08
O=NN(CCF)C(=O)NC1CCC(NC(=O)N(CCF)N=O)CC1 (centres undefined) | 1.34
COc1nc(-c2ccccc2)c2ccccc2n1 | 3.5
O=S(=O)(Nc1cccc(C(F)(F)F)c1)C(F)(F)F | 4.5
COc1cc(Cc2cnc(N)nc2N)ccc1Nc1ccccc1 | 3.42
CSc1nnc(CCC(C)C)c(=O)n1N | 1.85
O=C(CNC(=O)c1ccccc1)Oc1cccc(Cl)c1 | 3.21
CC(=O)NCCn1c([N+](=O)[O-])cnc1C | -0.47
Nc1nc(N)nc(-c2cc(Cl)ccc2Cl)n1 | 1.97
NC(=O)N(CCCN(N=O)C(N)=O)N=O | -0.3
CNc1cc(Cc2cnc(N)nc2N)cc(N(C)C(C)=O)c1C | 0.53
CN(C)N=Nc1ccc(C#N)cc1 | 2.39
CCOC(=O)CCCCCN1C(=O)C=CC1=O | 1.5
COc1cc(CC(=O)O)ccc1OCC1CCCCC1 | 3.35
Cc1cccc(C)c1N=C1NCCN1 | 1.45

SMILES | logP
CCN(CC)C(=O)NN | -0.62
N#Cc1ccc2c(c1)C(c1ccccc1)=NCC(=O)N2 | 1.82
O=C1CN=C(c2c(F)cccc2F)c2ccc(Cl)cc2N1 | 2.88
CCOC(=O)CCCn1nnc2ccccc21 | 1.86
CNC1=NC(=O)C(=Cc2ccc([N+](=O)[O-])o2)S1 | 1.16
NS(=O)(=O)c1ccc2c(c1)S(=O)(=O)NC(Cc1ccccc1)N2 (centres undefined) | 1.03
CCCCCCCCCCOC(=O)N(C)SN(C)C(=O)ON=C(C)SC | 6.2
COCCn1ccnc1[N+](=O)[O-] | 0.12
O=C1CCC(=O)N1c1cccc(Cl)c1 | 0.98
COc1cc(Cc2cnc(N)nc2N)cc(OCc2ccccc2)c1OC | 2.37
CCOC(=O)c1cnc2cccc(C)n2c1=O | 0.96
CCCCCCOC(=O)N(C)SN(C)C(=O)ON=C(C)SC | 4.2
[O-][n+]1ccc(Cl)c2ccccc21 | 1.08
Nc1nc(N)nc(-c2cc(F)ccc2Cl)n1 | 1.38
O=C(c1ccncc1)c1ccccc1O | 2.13
CCOC(=O)c1ccc2ncccc2c1 | 2.64
CNc1ccc(C(=O)OCCN(C)C)cc1 | 1.95
CCCCCC1(CC)C(=O)NC(=O)N(C)C1=O (centres undefined) | 2.45
CNP(=O)(OC)Oc1ccc(SC)cc1 (centres undefined) | 1.81
CSCN1C(=O)CN=C(c2ccccc2)c2cc(N)ccc21 | 1.92
CCCCCCNP(=O)(OC)SC (centres undefined) | 1.11
COc1cc(-n2[nH]c(C)cc2=O)nc(C)n1 | 0.72
O=C1OC(C2CCCCC2)c2ccccc21 (centres undefined) | 3.34
CN(C)c1cc(Cc2cnc(N)nc2N)cc(N(C)C)c1 | 1.6
